The record followed here is US10508120B2, “TYK2 inhibitors and uses thereof” (Nimbus Lakshmi, Inc., priority 2017, dated 2019).

The structures appear in SMILES notation. Read-outs that look alike come from different tables or passages of the source.

One assay concerns the target Tyk2 kinase domain (DH1) (Homo sapiens (Human), UniProt P29597). Put plainly: Tyk2 Radioactive Kinase Assay. It is filed as biochemical. Conditions: read-out: Tyk2 JH1% Inhibition @ 10 μM. The method in brief:
(§1)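 Values are single-concentration percent inhibition figures. They were obtained with 10 μM compound in a radioactivity-based kinase assay run separately on each enzyme.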

Another assay has as its target JAK2 kinase domain (JH1) (Homo sapiens (Human), UniProt O60674). The assay can be described thus: JAK2 Radioactive Kinase Assay. In kind it is biochemical. The conditions noted are these: read-out: JAK2 JH1% Inhibition @ 10 μM. The method in brief: as §1
Assay [1] addresses Tyk2/JAK2 (heterodimeric complex) (Homo sapiens (Human), UniProt P29597). The assay can be described thus: IL-12 Induced pSTAT4 in Human PBMC. The conditions noted are these: 1.7 ng/mL IL-12. In kind it is cell-based. From the text: The IL-12 Induced pSTAT4 assay evaluates the inhibition of IL-12 induced STAT4 phophorylation mediated by Tyk2/JAK2 (heterodimeric complex).
The target of assay [2] is JAK2/JAK2 homdimeric complex (Homo sapiens (Human), UniProt O60674). Put plainly: GM-CSF Induced pSTAT5 in Human PBMC. Conditions: GM-CSF 5 ng/mL for 20 minutes, pSTAT5 by MSD, read-out: PBMC_GMCSF_pSTAT5 IC50. In kind it is cell-based.
Sequence of JAK2/JAK2 homdimeric complex (O60674 whole entry, the tested form may be a part): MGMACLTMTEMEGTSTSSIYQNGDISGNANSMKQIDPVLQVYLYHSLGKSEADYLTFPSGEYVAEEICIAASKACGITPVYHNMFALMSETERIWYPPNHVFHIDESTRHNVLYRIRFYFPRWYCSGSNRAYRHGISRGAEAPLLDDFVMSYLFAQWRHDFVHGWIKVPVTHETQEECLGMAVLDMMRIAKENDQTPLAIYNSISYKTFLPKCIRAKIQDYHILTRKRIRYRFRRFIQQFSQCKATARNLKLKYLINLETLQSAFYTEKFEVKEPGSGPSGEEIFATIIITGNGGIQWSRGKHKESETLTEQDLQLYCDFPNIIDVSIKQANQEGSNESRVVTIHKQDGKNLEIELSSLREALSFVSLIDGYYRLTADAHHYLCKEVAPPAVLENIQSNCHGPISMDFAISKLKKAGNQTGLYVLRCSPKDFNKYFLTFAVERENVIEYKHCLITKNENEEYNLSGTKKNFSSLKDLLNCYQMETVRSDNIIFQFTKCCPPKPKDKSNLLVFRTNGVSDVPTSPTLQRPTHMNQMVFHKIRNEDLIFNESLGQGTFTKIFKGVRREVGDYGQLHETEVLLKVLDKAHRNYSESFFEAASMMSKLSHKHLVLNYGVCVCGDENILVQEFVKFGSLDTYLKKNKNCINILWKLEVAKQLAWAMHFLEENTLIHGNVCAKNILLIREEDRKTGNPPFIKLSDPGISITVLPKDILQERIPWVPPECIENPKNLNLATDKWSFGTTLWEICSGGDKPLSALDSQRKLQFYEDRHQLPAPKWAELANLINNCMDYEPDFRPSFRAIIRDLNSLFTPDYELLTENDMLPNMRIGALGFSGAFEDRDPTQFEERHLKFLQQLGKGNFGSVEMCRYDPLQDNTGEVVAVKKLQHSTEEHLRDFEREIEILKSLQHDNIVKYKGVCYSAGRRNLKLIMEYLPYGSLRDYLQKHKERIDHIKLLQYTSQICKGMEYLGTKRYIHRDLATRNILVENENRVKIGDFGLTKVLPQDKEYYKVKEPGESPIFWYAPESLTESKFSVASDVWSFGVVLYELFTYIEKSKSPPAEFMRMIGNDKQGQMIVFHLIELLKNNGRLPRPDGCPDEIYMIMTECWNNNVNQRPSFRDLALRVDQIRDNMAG
Sequence of JAK2/JAK2 homdimeric complex (P32927 17-897 partner): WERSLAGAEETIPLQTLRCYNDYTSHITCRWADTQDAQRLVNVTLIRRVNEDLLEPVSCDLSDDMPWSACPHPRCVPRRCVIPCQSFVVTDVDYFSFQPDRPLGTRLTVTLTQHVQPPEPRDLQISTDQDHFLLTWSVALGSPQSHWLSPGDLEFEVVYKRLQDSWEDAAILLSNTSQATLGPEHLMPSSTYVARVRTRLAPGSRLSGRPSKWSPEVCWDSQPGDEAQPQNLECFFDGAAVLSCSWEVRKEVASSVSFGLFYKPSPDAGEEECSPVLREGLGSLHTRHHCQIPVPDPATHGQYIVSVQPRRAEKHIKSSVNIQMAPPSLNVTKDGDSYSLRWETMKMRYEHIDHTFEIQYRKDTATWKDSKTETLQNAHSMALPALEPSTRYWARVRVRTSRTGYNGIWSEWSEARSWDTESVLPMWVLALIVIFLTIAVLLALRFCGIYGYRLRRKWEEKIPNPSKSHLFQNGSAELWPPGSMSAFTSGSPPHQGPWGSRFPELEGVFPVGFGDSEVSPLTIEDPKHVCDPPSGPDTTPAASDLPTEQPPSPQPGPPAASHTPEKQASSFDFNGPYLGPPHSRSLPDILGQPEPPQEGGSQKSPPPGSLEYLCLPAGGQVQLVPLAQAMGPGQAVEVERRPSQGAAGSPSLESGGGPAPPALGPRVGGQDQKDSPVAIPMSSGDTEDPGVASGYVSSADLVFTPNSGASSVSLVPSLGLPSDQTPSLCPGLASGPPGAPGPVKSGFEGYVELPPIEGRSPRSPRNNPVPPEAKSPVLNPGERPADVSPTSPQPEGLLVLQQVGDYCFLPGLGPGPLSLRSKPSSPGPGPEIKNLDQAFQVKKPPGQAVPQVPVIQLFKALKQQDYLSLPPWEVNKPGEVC
The target of assay [3] is human TYK2 (JH2domain-pseudokinase) (Homo sapiens (Human), UniProt P29597). Put plainly: TYK2 JH2 Domain Binding Assay (KINOMEscan). The method in brief: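 Displacement of a DNA-tagged TYK2 JH2 fusion (human, aa G556–D888, HEK293 extract, <0.1 nM) from ligand-coated beads over 1 h at RT; binding buffer PBS/0.05% Tween 20/10 mM DTT/0.1% BSA.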
Sequence of human TYK2 (JH2domain-pseudokinase) (P29597 556-888): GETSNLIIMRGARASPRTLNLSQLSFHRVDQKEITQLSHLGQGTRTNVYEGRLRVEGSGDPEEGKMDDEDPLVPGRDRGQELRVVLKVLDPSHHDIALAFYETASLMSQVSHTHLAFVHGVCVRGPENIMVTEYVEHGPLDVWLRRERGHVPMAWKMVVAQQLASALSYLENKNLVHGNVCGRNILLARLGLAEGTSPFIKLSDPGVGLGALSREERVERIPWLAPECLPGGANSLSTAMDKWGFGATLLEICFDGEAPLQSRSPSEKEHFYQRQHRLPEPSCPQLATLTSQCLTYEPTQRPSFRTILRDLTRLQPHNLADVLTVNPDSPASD

Sequence of JAK2 kinase domain (JH1) (O60674 849-1124): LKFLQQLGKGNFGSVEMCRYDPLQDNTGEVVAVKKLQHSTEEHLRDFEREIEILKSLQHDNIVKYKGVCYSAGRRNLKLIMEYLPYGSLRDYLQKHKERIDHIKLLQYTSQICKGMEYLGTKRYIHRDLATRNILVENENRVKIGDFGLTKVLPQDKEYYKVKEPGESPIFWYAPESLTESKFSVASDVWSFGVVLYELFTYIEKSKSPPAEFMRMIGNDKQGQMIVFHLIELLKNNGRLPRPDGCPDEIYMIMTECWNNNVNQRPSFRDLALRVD
Sequence of Tyk2/JAK2 (heterodimeric complex) (P29597 whole entry, other chains not shown): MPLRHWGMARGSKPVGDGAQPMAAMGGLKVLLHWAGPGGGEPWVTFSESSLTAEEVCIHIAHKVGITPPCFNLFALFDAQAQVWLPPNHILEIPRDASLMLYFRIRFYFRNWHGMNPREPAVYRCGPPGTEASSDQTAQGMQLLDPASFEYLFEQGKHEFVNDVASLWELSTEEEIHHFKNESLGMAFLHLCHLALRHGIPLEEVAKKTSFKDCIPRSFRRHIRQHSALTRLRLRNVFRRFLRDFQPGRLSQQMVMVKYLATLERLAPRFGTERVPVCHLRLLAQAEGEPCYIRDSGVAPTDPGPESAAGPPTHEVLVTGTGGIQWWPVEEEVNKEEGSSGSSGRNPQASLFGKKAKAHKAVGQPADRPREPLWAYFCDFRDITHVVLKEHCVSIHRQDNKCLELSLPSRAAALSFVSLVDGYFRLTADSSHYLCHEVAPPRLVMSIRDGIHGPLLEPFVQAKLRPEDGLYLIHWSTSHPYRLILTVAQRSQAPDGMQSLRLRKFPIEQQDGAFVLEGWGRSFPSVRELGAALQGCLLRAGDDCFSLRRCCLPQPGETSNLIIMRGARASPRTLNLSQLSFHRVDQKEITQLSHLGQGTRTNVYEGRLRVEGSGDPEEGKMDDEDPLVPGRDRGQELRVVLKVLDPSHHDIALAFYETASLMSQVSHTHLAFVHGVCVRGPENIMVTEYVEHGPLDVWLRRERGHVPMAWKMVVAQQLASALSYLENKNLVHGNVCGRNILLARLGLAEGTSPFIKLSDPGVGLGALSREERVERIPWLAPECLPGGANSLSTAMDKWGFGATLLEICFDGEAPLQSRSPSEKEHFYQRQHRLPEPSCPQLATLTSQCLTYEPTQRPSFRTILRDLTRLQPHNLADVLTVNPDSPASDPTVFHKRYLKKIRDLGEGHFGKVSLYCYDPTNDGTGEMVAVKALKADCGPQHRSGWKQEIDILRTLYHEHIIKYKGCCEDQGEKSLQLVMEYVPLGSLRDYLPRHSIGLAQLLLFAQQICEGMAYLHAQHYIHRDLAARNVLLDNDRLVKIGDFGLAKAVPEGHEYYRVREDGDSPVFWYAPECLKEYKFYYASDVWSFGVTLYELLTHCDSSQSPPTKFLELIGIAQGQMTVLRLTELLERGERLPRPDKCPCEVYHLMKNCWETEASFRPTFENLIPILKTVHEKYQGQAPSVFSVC
Sequence of Tyk2 kinase domain (DH1) (P29597 897-1176): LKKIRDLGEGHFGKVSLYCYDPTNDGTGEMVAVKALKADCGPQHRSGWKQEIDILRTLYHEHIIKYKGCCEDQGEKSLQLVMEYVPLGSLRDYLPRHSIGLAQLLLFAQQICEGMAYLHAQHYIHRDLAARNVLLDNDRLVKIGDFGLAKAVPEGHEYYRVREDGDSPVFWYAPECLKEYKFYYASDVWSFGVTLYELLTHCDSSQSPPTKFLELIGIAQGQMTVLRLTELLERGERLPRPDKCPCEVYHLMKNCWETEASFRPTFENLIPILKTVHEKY

The term inhibition denotes how much of the control response was suppressed. For orientation: IC50 means the midpoint of a concentration-inhibition curve. For orientation: Kd means the concentration at which binding is half-saturated. As to `CNc1cc(Nc2cccn3ccnc23)nc2c(C(=O)N[C@@H]3C[C@@H]3F)cnn12` [I-892], the inhibition at 10 µM at Tyk2 kinase domain (DH1) (10 μM compound, 10 μM ATP) was under 50%; on JAK2 kinase domain (JH1) (10 μM compound, 10 μM ATP), under 50%. Moreover, the half-maximal inhibitory concentration (IC50) in assay [1] was under 0.1 µM; in assay [2] it was over 12.5 µM. In assay [3], the dissociation constant Kd is under 0.0002 µM.
Consider `CNc1cc(Nc2cccn(C3CC4(COC4)C3)c2=O)nc2c(C(=O)N[C@@H]3C[C@@H]3F)cnn12` [I-551, N-((1R,2S)-2-fluorocyclopropyl)-7-(methylamino)-5-((2-oxo-1-(2-oxaspiro[3.3]heptan-6-yl)-1,2-dihydropyridin-3-yl)amino)pyrazolo[1,5-a]pyrimidine-3-carboxamide], for which the inhibition at 10 µM at Tyk2 kinase domain (DH1) (compound at 10 μM, ATP 10 μM) is under 50%; on JAK2 kinase domain (JH1) (compound at 10 μM, ATP 10 μM), under 50%. Further, the figures for the half-maximal inhibitory concentration (IC50) in assay [1] and in assay [2] were under 0.1 µM and over 2.5 µM, respectively. Besides, in assay [3], the Kd is under 0.0002 µM.
Regarding `CNc1cc(Nc2cc(Cl)cn(C3CCOCC3)c2=O)nc2c(C(=O)N[C@H]3CC[C@@H]3O)cnn12` [I-712], the inhibition at 10 µM is under 50% on Tyk2 kinase domain (DH1) (compound at 10 μM, ATP 10 μM) and under 50% at JAK2 kinase domain (JH1) (compound at 10 μM, ATP 10 μM). Also, the half-maximal inhibitory concentration (IC50) in assay [1] was under 0.1 µM; in assay [2] it was over 12.5 µM. In assay [3], the Kd is under 0.0002 µM.
Turning to `CNc1cc(Nc2cc(F)cn(-c3cnn(C)c3)c2=O)nc2c(C(=O)N[C@H]3C[C@H]3F)cnn12` [I-381], the inhibition at 10 µM at Tyk2 kinase domain (DH1) (compound at 10 μM, ATP 10 μM) is under 50%; on JAK2 kinase domain (JH1) (compound at 10 μM, ATP 10 μM), under 50%. The IC50 is under 0.1 µM in assay [1] and over 12.5 µM in assay [2]. This compound gave a Kd in assay [3] of under 0.0002 µM.
On to `CNc1cc(Nc2cc(Cl)cn(C3CCN(C)CC3)c2=O)nc2c(C(=O)N[C@@H]3C[C@@H]3F)cnn12` [I-789], for which the inhibition at 10 µM on Tyk2 kinase domain (DH1) (compound at 10 μM, ATP 10 μM) was under 50%; on JAK2 kinase domain (JH1) (compound at 10 μM, ATP 10 μM), under 50%. Moreover, the half-inhibitory concentration (IC50) is under 0.1 µM in assay [1] and over 12.5 µM in assay [2]. This compound also returned a dissociation constant (Kd) in assay [3] of under 0.0002 µM.
On to `CNc1cc(Nc2cc(F)cn([C@H]3CCCOC3)c2=O)nc2c(C(=O)N[C@H]3C[C@H]3F)cnn12` [I-559], for which the inhibition at 10 µM at Tyk2 kinase domain (DH1) (compound at 10 μM, ATP 10 μM) is under 50%; on JAK2 kinase domain (JH1) (compound at 10 μM, ATP 10 μM), under 50%. Besides, the figures for the IC50 in assay [1] and in assay [2] were under 0.1 µM and over 50 µM, respectively. Also, in assay [3], the Kd is under 0.0002 µM.
Consider `CNc1cc(Nc2cc(Cl)cn(-c3ccn(C)n3)c2=O)nc2c(C(=O)NC3CC3)cnn12` [I-310], for which the inhibition at 10 µM at Tyk2 kinase domain (DH1) (compound at 10 μM, ATP 10 μM) is under 50%; at JAK2 kinase domain (JH1) (compound at 10 μM, ATP 10 μM) it was under 50%. Also, the IC50 in assay [1] is under 0.1 µM; in assay [2] it was over 2.5 µM. Moreover, the Kd in assay [3] is under 0.0002 µM.
Regarding `CNc1cc(-c2cn(C(C)C)c3ncccc23)nc2c(C(=O)N[C@H]3CC[C@H]3O)cnn12` [I-637], the inhibition at 10 µM is under 50% on Tyk2 kinase domain (DH1) (compound at 10 μM, ATP 10 μM) and under 50% on JAK2 kinase domain (JH1) (compound at 10 μM, ATP 10 μM). Also, the half-inhibitory concentration (IC50) in assay [1] was under 0.1 µM; in assay [2], over 12.5 µM. Also, the Kd in assay [3] was under 0.0002 µM.
Regarding `CNc1cc(Nc2cccnc2OC(F)F)nc2c(C(=O)NC3CCC3)cnn12` [I-151], the inhibition at 10 µM is under 50% on Tyk2 kinase domain (DH1) (compound at 10 μM, ATP 10 μM) and under 50% at JAK2 kinase domain (JH1) (compound at 10 μM, ATP 10 μM). Besides, the IC50 in assay [1] was under 0.1 µM; in assay [2] it was over 50 µM. Further, the Kd in assay [3] was under 0.0002 µM.
With `CNc1cc(Nc2cccn([C@H]3CC[C@@H](OC)CC3)c2=O)nc2c(C(=O)N[C@H]3C[C@H]3F)cnn12` [I-357], the inhibition at 10 µM on Tyk2 kinase domain (DH1) (compound at 10 μM, ATP 10 μM) is under 50%; at JAK2 kinase domain (JH1) (compound at 10 μM, ATP 10 μM) it was under 50%. Moreover, the IC50 was under 0.1 µM in assay [1] and over 2.5 µM in assay [2]. The compound further gave a Kd in assay [3] of under 0.0002 µM.
As for `CNc1cc(Nc2cccc3ocnc23)nc2c(C(=O)NC3CC3)cnn12` [I-591], the inhibition at 10 µM on Tyk2 kinase domain (DH1) (compound at 10 μM, ATP 10 μM) is under 50%; at JAK2 kinase domain (JH1) (compound at 10 μM, ATP 10 μM), under 50%. In addition, the figures for the IC50 in assay [1] and in assay [2] were under 0.1 µM and over 12.5 µM, respectively. Moreover, the Kd in assay [3] was under 0.0002 µM.
As to `CNC(=O)c1occc1Nc1cc(NC)n2ncc(C(=O)NC3CC3)c2n1` [I-887], the inhibition at 10 µM on Tyk2 kinase domain (DH1) (10 μM compound, 10 μM ATP) is under 50%; on JAK2 kinase domain (JH1) (10 μM compound, 10 μM ATP) it was under 50%. The IC50 in assay [1] was under 0.1 µM; in assay [2], over 50 µM. Besides, in assay [3], the Kd was under 0.0002 µM.
As to `CNc1cc(Nc2cccn(-c3cccnc3)c2=O)nc2c(C(=O)N[C@@H]3C[C@@H]3F)cnn12` [I-748], the inhibition at 10 µM was under 50% at Tyk2 kinase domain (DH1) (compound at 10 μM, ATP 10 μM) and under 50% on JAK2 kinase domain (JH1) (compound at 10 μM, ATP 10 μM). Moreover, the half-maximal inhibitory concentration (IC50) is under 0.1 µM in assay [1] and over 2.5 µM in assay [2]. This compound gave a dissociation constant (Kd) in assay [3] of under 0.0002 µM.
Regarding `CNc1cc(Nc2cccc([C@H]3CCCOC3)n2)nc2c(C(=O)N[C@H]3C[C@H]3F)cnn12` [I-563], the inhibition at 10 µM at Tyk2 kinase domain (DH1) (compound at 10 μM, ATP 10 μM) is under 50%; at JAK2 kinase domain (JH1) (compound at 10 μM, ATP 10 μM), under 50%. Moreover, the results for the half-inhibitory concentration (IC50) in assay [1] and in assay [2] were under 0.1 µM and over 50 µM, respectively. Moreover, the Kd in assay [3] is under 0.0002 µM.
`CNc1cc(Nc2cccn(-c3ncc(OC)cc3F)c2=O)nc2c(C(=O)N[C@H]3C[C@H]3F)cnn12` [I-673]: the inhibition at 10 µM at Tyk2 kinase domain (DH1) (compound at 10 μM, ATP 10 μM) was under 50%; on JAK2 kinase domain (JH1) (compound at 10 μM, ATP 10 μM) it was under 50%. The values for the 50% inhibitory concentration (IC50) in assay [1] and in assay [2] were under 0.1 µM and over 50 µM, respectively. In addition, the Kd in assay [3] was under 0.0002 µM.
For `CNc1cc(Nc2cccn(-c3ccc(OC)cn3)c2=O)nc2c(C(=O)NC3CCC3)cnn12` [I-266], the inhibition at 10 µM on Tyk2 kinase domain (DH1) (compound at 10 μM, ATP 10 μM) is under 50%; at JAK2 kinase domain (JH1) (compound at 10 μM, ATP 10 μM) it was under 50%. Besides, the 50% inhibitory concentration (IC50) is under 0.1 µM in assay [1] and over 12.5 µM in assay [2]. The Kd in assay [3] is under 0.0002 µM.
As to `CNc1cc(Nc2cc(F)cn(-c3cc(C)n(C)n3)c2=O)nc2c(C(=O)N[C@H]3C[C@H]3F)cnn12` [I-385], the inhibition at 10 µM at Tyk2 kinase domain (DH1) (compound at 10 μM, ATP 10 μM) is under 50%; on JAK2 kinase domain (JH1) (compound at 10 μM, ATP 10 μM) it was under 50%. The results for the IC50 in assay [1] and in assay [2] were under 0.1 µM and over 2.5 µM, respectively. In addition, the equilibrium dissociation constant (Kd) in assay [3] is under 0.0002 µM.
`CNc1cc(-c2cn(C(C)C)c3ncccc23)nc2c(C(=O)N[C@@H]3CC[C@H]3O)cnn12` [I-640]: the inhibition at 10 µM is under 50% at Tyk2 kinase domain (DH1) (compound at 10 μM, ATP 10 μM) and under 50% at JAK2 kinase domain (JH1) (compound at 10 μM, ATP 10 μM). Moreover, the values for the half-inhibitory concentration (IC50) in assay [1] and in assay [2] were under 0.1 µM and over 12.5 µM, respectively. Moreover, the Kd in assay [3] is under 0.0002 µM.
As for `CNc1cc(-c2cn(C3CC3)c3ncccc23)nc2c(C(=O)NC3CC3)cnn12` [I-960, N-cyclopropyl-5-(1-cyclopropyl-1H-pyrrolo[2,3-b]pyridin-3-yl)-7-(methylamino)pyrazolo[1,5-a]pyrimidine-3-carboxamide], the inhibition at 10 µM on Tyk2 kinase domain (DH1) (10 μM compound, 10 μM ATP) was under 50%; on JAK2 kinase domain (JH1) (10 μM compound, 10 μM ATP) it was under 50%. Besides, the IC50 in assay [1] is under 0.1 µM; in assay [2], over 50 µM. In assay [3], this compound came in with an equilibrium dissociation constant (Kd) of under 0.0002 µM.
Turning to `CNc1cc(Nc2cccn([C@H]3CC[C@@](C)(OC)CC3)c2=O)nc2c(C(=O)N[C@H]3C[C@H]3F)cnn12` [I-360], the inhibition at 10 µM was under 50% on Tyk2 kinase domain (DH1) (compound at 10 μM, ATP 10 μM) and under 50% at JAK2 kinase domain (JH1) (compound at 10 μM, ATP 10 μM). The IC50 in assay [1] was under 0.1 µM; in assay [2], over 50 µM. In assay [3], this compound came in with a Kd of under 0.0002 µM.
Consider `CNc1cc(Nc2cc(Cl)cn(-c3ccn(C4CC4)n3)c2=O)nc2c(C(=O)N[C@H]3C[C@H]3F)cnn12` [I-332], for which the inhibition at 10 µM on Tyk2 kinase domain (DH1) (compound at 10 μM, ATP 10 μM) was under 50%; on JAK2 kinase domain (JH1) (compound at 10 μM, ATP 10 μM) it was under 50%. The IC50 in assay [1] was under 0.1 µM; in assay [2], over 2.5 µM. In assay [3], this compound showed a Kd of under 0.0002 µM.
